Measured values from patent US20070207230A1, “EXTRACT OF NELUMBINIS SEMEN FOR THE TREATMENT OF DEPRESSION, MEDICINAL COMPOSITE AND HEALTH FOODS INCLUDING THE EXTRACT OF NELUMBINIS SEMEN” (PURIMED CO., LTD., priority 2004, published 2007).

What was measured:
5-HT1A receptor = experiment: [3H]-8-OH-DPAT receptor binding autoradiography on brain sections of CMS rats; type: in vivo, rat
Protocol: Secondarily, antidepressive effects were evaluated by an increase or decrease in receptor binding of a serotonin 1A receptor agonist, [^3H]-8-OH-DPAT, in the rat prefrontal cortex, hippocampus and hypothalamus, which play important roles in depression, as follows. […] Whole brains were excised from the rats and rapidly frozen in dry ice. The rapidly frozen brains were stored at −70° C. until sectioned. The brains were cryo-sectioned into a size of 20 ? at −20° C. using a cryostat microtome (Leika), and each section was attached onto a gelatin-coated slide (Superfrost/Plus, Fisher Scientific). The slides were stored at −70° C. until use for observing changes in 5-HT1A receptor levels or activity. The changes in 5-HT1A receptor were examined using a radioisotope, [^3H]-8-OH-DPAT. The slides were taken out from a −70° C. freezer where the slides had been stored, and were pre-incubated in Tris-HCl buffer (170 mM Tris, 4 mM CaCl2, pH 7.6) for 30 min at room temperature. Then, the slides were incubated in Tris-HCl buffer containing 2 nM [^3H]-8-OH-DPAT (Amersham) for one hour. This incubation is total binding for observing the changes in the whole 5-HT1A receptor, and non-specific binding was observed using Tris-HCl buffer containing 1 μM 5-HT (Sigma). Then, the slides were washed with Tris-HCl buffer precooled at 4° C. six times and dried with chilled air. The slides were completely dried in a desiccator for 24 hours. The completely dried slides are exposed to Hyperfilm along with a standard scale bar for five weeks. The film exposed for five weeks was developed using a developer and a fixer. For quantitative analysis of density, the film was scanned using an image analysis program, ImageQuant (Molecular dynamics).
The changes in 5-HT1A receptor levels or activity were examined using a radioisotope, [^3H]-8-OH-DPAT. Reduced levels or inactivation of 5-HT1A receptor occur in the prefrontal cortex, hippocampus and hypothalamus of depressed patients. […] This normalization of 5-HT1A receptor by antidepressant administration is effective in treating depression and depression-associated neurodegeneration. Based on this fact, an increase in 5-HT1A receptor levels can be assessed by a receptor binding assay using a 5-HT1A receptor […]. When an increase in 5-HT1A receptor levels is observed upon Nelumbinis Semen administration in comparison with a control group exposed to CMS, this is considered an in vivo indication of an antidepressive effect at the molecular level. After drugs were administered for the last four weeks of the 8-week CMS period, an increase in 5-HT1A receptor levels, as an in vivo indication of antidepressive effect, was found in animals administered with the Nelumbinis Semen extract.

male rats exposed to CMS = experiment: Sexual (mating) behavior after CMS; type: in vivo, rat; settings: drug last four weeks
Protocol: A decrease in sucrose consumption (the core symptom of depression) in rats was confirmed during the 8-week CMS period, and antidepressants were administered for the last four weeks. Then, mating behavior of rats was observed. This test was carried out a dark and quiet room using a 16×16-inch transparent acrylic box. Mature female rats were ovariectomized, and, to induce sexual receptivity, were administered with 20 μg of estradiol benzoate 48 hrs before the test and 1 mg of progesterone 5 hrs before the test. Male rats were singly housed in the same box for 30 min to adapt to a new environment. […] When female rats have sexual receptivity, that is, are estrous, they allow male rats to mount and show lordosis. Sexual behaviors of male rats were divided into mounting, intromission and ejaculation, and frequency of each behavior was recorded. The number of ejaculation (higher frequency generally means higher sexual activity) was recorded for 30 min. The time taken after ejaculation before resumption of sexual activity was called “post-ejaculation interval (PEI)”. A decrease in PEI generally means that male rats have increased sexual activity.

rat hippocampus proteins = experiment: 2-DE analysis of hippocampus proteins of CMS rats; settings: drug last four weeks, compared to control group
Description: Thirdly, an increase in marker proteins of antidepression, which play important roles in depression, was examined in the rat hippocampus by 2-DE, as follows. Rats were exposed to CMS for eight weeks and administered with drugs for the last four weeks of a test period. The hippocampus was excised from the rats, suspended with a sonicator and centrifuged, and the supernatants were recovered. Each sample was mixed with an IEF sample buffer and loaded onto an IEF gel. Proteins were separated according to isoelectric point by isoelectric focusing (IEF) in the first dimension and according to molecular weight by SDS-PAGE at 100-200 V for about 1-2 hours in the second dimension. The gel was stained by a Gel-Code Blue staining method and evaluated for elevated or newly emerged proteins by the antidepressive substances. The elevated or newly emerged proteins by the antidepressive substances were subjected to mass spectrometry.
Protein samples from the rat hippocampus were loaded onto an IEF gel. Proteins were separated according to isoelectric point by isoelectric focusing (IEF) in the first dimension and according to molecular weight by SDS-PAGE in the second dimension.

Sprague-Dawley male rats = experiment: Forced swim test, immobility time; type: in vivo, rat; settings: 5 min forced swim the day after
Protocol: During forced swimming, the immobility time, when a rat ceases struggling and remains floating motionless in the water, was measured. The forced swimming itself induces depression in rats. Rats in water baths struggle first, and then stop struggling and remain floating motionless in the water. At the immobile state, rats become desperate and almost come to give up their lives. This time is considered to be the situation when depression is induced.
The antidepressive effects of drugs are assessed using this principle. Before being administered with drugs, experimental animals (rats) are dropped into water baths and forced to swim for 15 minutes to be trained to adapt to a suddenly changed environment without fear.
A comparative group was orally administered with a Hypericum perforatum extract. Another comparative group was intraperitoneally administered with fluoxetine. Each drug was administered for one day or six days.
Before the drug administration, the white rats were dropped into a cylindrical water bath (20 cm in diameter; 40 cm water depth) and forced to swim for 15 min. The day after the drug administration for one day or six days, the rats were forced to swim for 5 min, and during this forced swimming, immobility time was measured.

[1] = tested on: male Wistar white rats exposed to CMS; experiment: Sucrose intake in the CMS model of depression; type: in vivo, rat; settings: 8-week CMS, drug for the last four weeks
Description: Postnatal 6-week-old male Wistar white rats weighing 180-200 g were divided into test groups and a control group. The rats were first trained to experience and drink a 1% sucrose solution for 48 hrs to be adapted to sweetness. After three days, the test groups were exposed to CMS (chronic mild stress) for a total of eight weeks. The CMS procedure applied to the test groups was based on the procedure originally designed by Willner et al. (1987). The rats were sequentially exposed to a variety of mild stressors, and a series of stressors was suitably divided over one week and applied to rats according to a predetermined time schedule. This procedure was repeated for eight weeks.
The stress procedure is given in Table 1, below, which describes a weekly CMS regime (20-h food and water deprivation, prey limitation after the food and water deprivation (45 g powdered prey sprinkled), exposure to empty water bottles after the food and water deprivation, all day illumination, 30° cage tilt; soiled cage (400 ml of water spilled on bedding), presentation of intermittent 85-dB white noise, presentation of flashes of light with a stroboscope, and tripled housing). The control rats were weekly exposed only to food and water deprivation for 20 hrs before sucrose intake was measured, and were normally bred in single cages for the rest of the time with sufficient water and food supply. […]

[2] = Body weight in the CMS model of depression; type: in vivo, rat; settings: after 8-week CMS, drug for the last four weeks; versus CMS control group
Description: The rats were first trained to experience and drink a 1% sucrose solution for 48 hrs to be adapted to sweetness. After three days, the test groups were exposed to CMS (chronic mild stress) for a total of eight weeks. The CMS procedure applied to the test groups was based on the procedure originally designed by Willner et al. (1987). The rats were sequentially exposed to a variety of mild stressors, and a series of stressors was suitably divided over one week and applied to rats according to a predetermined time schedule. This procedure was repeated for eight weeks. […] The control rats were weekly exposed only to food and water deprivation for 20 hrs before sucrose intake was measured, and were normally bred in single cages for the rest of the time with sufficient water and food supply. […] Intake of a 1% sucrose solution was measured once every week in each of the four groups. […] Sucrose preference was expressed as a ratio of sucrose intake to total water and sucrose intake. […] In each group, sucrose intake was monitored from the beginning of CMS and for the CMS period of eight weeks. Body weight was measured before the 20-h water and food deprivation performed to measure sucrose intake every week.

[3] = tested on: male Wistar white rats exposed to CMS; experiment: Open field activity after CMS; type: in vivo, rat; settings: 8-week CMS, drug for the last four weeks; average
Description: The open field consisted of a wooden box of 75×75×30 cm, the floor of which was divided by width and length lines into 15 cm squares. The open field was connected to a small box of 15×15×15 cm, which was used as a start box where experimental animals waited to enter the open field. A vertical sliding door was installed between the start box and the open field. White rats were placed in the start box, and, after 30 sec, the sliding door was open. The time to leave the start box toward the open field, which was expressed as start latency, was recorded. The start latency time means the time ranging from when the door was opened to when the rat tails completely exited the start box. […] The following behaviors were recorded for a total of 10 min: locomotion, rearing, grooming and defecation. Grooming behavior was recorded as the total time spent grooming in 10 min, and the remaining behaviors were all recorded as frequencies. Locomotor activity was recorded by counting the number of squares each white rat crossed on the floor divided into 25 15×15-cm squares using a computer tracking system. […] Grooming was recorded as the number of times each rat stroked its head or combed its fur with its forepaws during 10 min. After the 10-min observation, the white rats were removed from the open field, and defecation frequency was recorded by counting fecal boluses on the floor of the open field.

SMILES: CNCCC(Oc1ccc(C(F)(F)F)cc1)c1ccccc1 (stereo not drawn) [fluoxetine]
- 5-HT1A receptor levels (5-HT1A receptor; CA2 region of the rat hippocampus): decrease
- decrease in 5-HT1A receptor levels (5-HT1A receptor; CA3 region of the rat hippocampus): 2%
- decrease in 5-HT1A receptor levels (5-HT1A receptor; layer I-II of the rat cerebral frontal cortex, compared to the NS group, P<0.05): 46%
- 5-HT1A receptor levels (5-HT1A receptor; rat hippocampus and hypothalamus, compared to CMS control group): increase
- post-ejaculation interval (PEI) (male rats exposed to CMS; compared to control animals exposed to CMS): no significant difference
- sexual behavior (ejaculation frequency in 30 min) (male rats exposed to CMS; compared to normal animals): remarkably reduced
- protein spots in 2-DE of hippocampus (rat hippocampus proteins): decrease in spots 1 and 4
- decrease in immobility time in comparison with a control group (Sprague-Dawley male rats; one-day drug administration): 9.3%
- decrease in immobility time in comparison with a control group (Sprague-Dawley male rats; six-day drug administration): 22.1%
- sucrose consumption [1]: restored to levels similar to the normal group
- body weight [2]: greater weight loss than the control group
- visit counts in open field [3]: 60 places in 10 min
